14 compounds from ChEMBL document CHEMBL4321787, “Overview of Recent Strategic Advances in Medicinal Chemistry” (J Med Chem, 2019) can be followed below.

One data set has as its target Protease (Human immunodeficiency virus 1, UniProt Q9YQ12). The data set can be described thus: Inhibition of HIV1 protease using RE(Edans)SGIFLETSK(Dabcyl)R as substrate by fluorescence method.
The target of a further data set is Histone deacetylase. The data set can be described thus: Inhibition of HDAC (unknown origin) using Fluoro-Substrate Peptide as substrate by fluorescence assay. Type of data set: protein assay, Homo sapiens.
For data set [1], the system named is Human immunodeficiency virus 1. The data set can be described thus: Antiviral activity against HIV1 3B infected in human MT2 cells incubated for 5 days by MTT assay. It is filed as functional, organism-based. The conditions noted are these: Human immunodeficiency virus 1, 3B, MT2, 120 h.
In data set [2] the target is T1, Envelope glycoprotein gp160 (Human immunodeficiency virus 1, UniProt Q6QLK5). The data set can be described thus: Inhibition of HIV1 JRFL gp120 assessed as reduction in CD4/gp 120 complex formation incubated for 1 hr by ELISA.
Data set [3] has as its target T1, Envelope glycoprotein gp160. The data set can be described thus: Inhibition of HIV1 gp120 assessed as increase in anti-DNP binding to immobilized HIV-1 gp120 incubated for 1 hr by ELISA. For orientation: In an ELISA, binding on a coated surface is turned into a signal by an enzyme label.
Data set [4] deals with Human immunodeficiency virus 1. As to the kind of experiment: Antiviral activity against HIV1 infected in human MT2 cells incubated for 5 days. Type of data set: functional, organism-based. The conditions noted are these: Human immunodeficiency virus 1, MT2, 120 h.
Data set [5] can be described thus: Cytotoxicity against human MT2 cells incubated for 5 days. It is filed as cell-based.
A short description of data set [6]: Inhibition of Acinetobacter baumannii N-terminal ADC-7 cephalosporinase expressed in Escherichia coli BL21(DE3) incubated for 5 mins by UV-vis spectrophotometric method.
In the next data set the target is Histone deacetylase 3 (Homo sapiens, UniProt O15379). As to the kind of experiment: Inhibition of HDAC3 (unknown origin).
Data set [7] in a line: Inhibition of HIV1 reverse transcriptase p66/p51 K103N/Y181C mutant infected in human MT2 cells assessed as reduction in viral infection incubated for 5 days.

T1 sequence (Q6QLK5 whole entry): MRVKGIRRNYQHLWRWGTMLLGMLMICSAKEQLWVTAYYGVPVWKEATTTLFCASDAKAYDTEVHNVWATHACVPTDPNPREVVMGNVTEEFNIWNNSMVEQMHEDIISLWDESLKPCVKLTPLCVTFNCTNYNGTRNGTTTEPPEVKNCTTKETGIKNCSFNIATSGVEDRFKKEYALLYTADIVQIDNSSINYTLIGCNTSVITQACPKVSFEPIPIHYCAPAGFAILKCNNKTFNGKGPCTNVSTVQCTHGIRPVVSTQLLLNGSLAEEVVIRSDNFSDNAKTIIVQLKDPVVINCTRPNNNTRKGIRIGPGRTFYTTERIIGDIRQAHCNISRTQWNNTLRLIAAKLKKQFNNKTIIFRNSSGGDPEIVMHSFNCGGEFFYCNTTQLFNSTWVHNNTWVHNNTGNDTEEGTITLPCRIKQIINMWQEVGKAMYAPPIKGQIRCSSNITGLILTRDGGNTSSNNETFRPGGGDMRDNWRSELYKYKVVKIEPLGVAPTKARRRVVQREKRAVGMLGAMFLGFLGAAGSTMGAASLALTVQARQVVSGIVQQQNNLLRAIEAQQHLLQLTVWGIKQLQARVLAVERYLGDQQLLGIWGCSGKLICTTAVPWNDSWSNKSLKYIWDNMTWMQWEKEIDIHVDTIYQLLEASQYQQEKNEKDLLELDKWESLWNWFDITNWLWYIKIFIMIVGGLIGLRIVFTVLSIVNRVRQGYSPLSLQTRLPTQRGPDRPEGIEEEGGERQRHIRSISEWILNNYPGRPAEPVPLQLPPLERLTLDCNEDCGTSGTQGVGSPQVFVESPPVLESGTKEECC
Chain of Histone deacetylase 3 (O15379 whole entry): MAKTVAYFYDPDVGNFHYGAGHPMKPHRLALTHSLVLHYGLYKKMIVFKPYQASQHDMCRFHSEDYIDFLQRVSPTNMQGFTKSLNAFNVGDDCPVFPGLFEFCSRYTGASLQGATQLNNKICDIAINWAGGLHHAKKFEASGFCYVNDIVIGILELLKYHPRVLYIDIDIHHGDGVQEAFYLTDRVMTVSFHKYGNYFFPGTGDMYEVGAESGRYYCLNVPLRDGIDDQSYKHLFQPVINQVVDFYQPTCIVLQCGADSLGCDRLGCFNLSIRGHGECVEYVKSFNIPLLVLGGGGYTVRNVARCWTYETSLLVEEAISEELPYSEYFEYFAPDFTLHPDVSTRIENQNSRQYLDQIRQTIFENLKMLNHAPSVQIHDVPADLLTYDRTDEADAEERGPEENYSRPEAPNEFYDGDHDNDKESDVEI
Chain of Protease (Q9YQ12 whole entry): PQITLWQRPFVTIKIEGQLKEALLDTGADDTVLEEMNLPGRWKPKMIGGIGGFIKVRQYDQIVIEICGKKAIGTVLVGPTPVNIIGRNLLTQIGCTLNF

Usually Ki stands for a dissociation constant, usually derived from enzyme kinetics or from competition with a known ligand. In the case of `CC(C)CN(C[C@@H](O)[C@H](Cc1ccccc1)NC(=O)O[C@H]1CO[C@H]2OCC[C@H]21)S(=O)(=O)c1ccc(B(O)O)cc1`, on Protease, the Ki was 0.0005 nM.

By IC50 is commonly meant the concentration that inhibits the measured activity by half. In the case of `Nc1ccccc1NC(=O)c1ccc(-c2cn(CCc3cccc([N+](=O)[O-])c3)nn2)s1`, at Histone deacetylase, the IC50 was over 100000 nM.

On to `COc1ccc(-c2ccco2)c2[nH]cc(C(=O)C(=O)N3CCN(C(=O)c4ccccc4)CC3)c12`, for which the concentration for half-maximal inhibition (IC50) is 0.064 nM in [1] and 130 nM in data set [2].

By EC50 is commonly meant the concentration that produces a half-maximal response. Regarding `C[C@@H]1CN(C(=O)c2ccccc2)CCN1C(=O)C(=O)c1c[nH]c2nccc(OCCOCCOCCOCCOCCOCCn3cc(COCCOCCOCCOCCNc4ccc([N+](=O)[O-])cc4[N+](=O)[O-])nn3)c12`, the EC50 in [3] is 37900 nM. Besides, in [2], the IC50 came to 19900 nM.

As usually defined, the CC50 is the concentration that lowers cell viability or growth by half. In data set [4], `C=CC(=O)N(C)c1cc(Oc2ccccc2OCCn2ccc(=O)[nH]c2=O)c(C)c2cc(C#N)ccc12` displayed an EC50 of 560 nM. The same compound registered a CC50 at 120 h in [5] of 32000 nM.

In the case of `O=C(Cc1cccs1)N[C@@H](Cn1cc(C(=O)O)nn1)B(O)O`, the Ki in data set [6] came to 44 nM.

As to `COc1ccnc2[nH]cc(C(=O)C(=O)N3CCN(C(=O)c4ccccc4)C[C@H]3C)c12`, the IC50 in [2] was found to be 8700 nM.

`Cc1c(Oc2ccccc2OCCn2ccc(=O)[nH]c2=O)cc(N(C)C(=O)CF)c2ccc(C#N)cc12` registered an EC50 in data set [4] of 890 nM. Moreover, the CC50 at 120 h in data set [5] is over 100000 nM.

The compound `C=CC(=O)Nc1cc(Oc2ccccc2OCCn2ccc(=O)[nH]c2=O)c(C)c2cc(C#N)ccc12` displayed an EC50 in data set [4] of 1600 nM. This compound yielded a CC50 at 120 h in [5] of 11000 nM.

Compound `O=C(NO)c1cccc(-c2cn(CSc3ccccc3)nn2)c1` yielded an IC50 on Histone deacetylase 3 of 68000 nM.

Take `Cc1c(Oc2ccccc2OCCn2ccc(=O)[nH]c2=O)cc(Cl)c2ccc(C#N)cc12`: the EC50 in [7] stood at 280 nM; in data set [4], 6.2 nM. Also, the CC50 at 120 h in data set [5] was over 100000 nM.

As to `COc1ccc(-c2ccc(CNC(=O)COCCOCCOCCOCCn3cc(COCCOCCOCCOCCNc4ccc([N+](=O)[O-])cc4[N+](=O)[O-])nn3)o2)c2[nH]cc(C(=O)C(=O)N3CCN(C(=O)c4ccccc4)CC3)c12`, the IC50 in [1] turned out to be 13 nM; in [2], 330 nM. Besides, the EC50 in data set [3] is 1120 nM.

For `Nc1ccccc1NC(=O)c1ccc(-c2cn(CCc3ccsc3)nn2)cc1`, the IC50 on Histone deacetylase is over 100000 nM.

For the compound `Cc1c(Oc2ccccc2OCCn2ccc(=O)[nH]c2=O)cc(N(C)C(=O)CCl)c2ccc(C#N)cc12`, the EC50 in [4] was 580 nM. Also, half-maximal cytotoxicity in data set [5] (CC50 at 120 h) was put at 32000 nM.
